From patent US20250206729A1, “DUAL RAF AND TUBULIN INHIBITORS AND METHODS OF USE THEREOF” (Deciphera Pharmaceuticals, LLC, priority 2023, published 2025)
pIC50: −log10 of the molar value. Read-outs that look alike come from different tables or passages of the source.

Columns and labels:
HCT-116 cells = test: HCT-116 cell proliferation assay; assay type: cell-based; settings: for pIC50: Homo sapiens
Method: HCT-116 cells (catalog #CCL-247) are obtained from the American Type Culture Collect (ATCC, Manassas, VA). Briefly, cells are grown in McCoy's 5A supplemented with 10% characterized fetal bovine serum (Invitrogen, Carlsbad, CA) and 1% Penicillin/Streptomycin/L-Glutamine at 37° C., 5% CO2, and 95% humidity. Cells are expanded until reaching 70-95% confluency at which point they are sub-cultured or harvested for assay use. A serial dilution of test compound is dispensed into a 384-well black clear bottom plate in triplicate. 375 cells are added per well in 50 μL complete growth medium in the 384-well plate. Plates are incubated for 67 to 72 h at 37° C., 5% CO2, and 95% humidity. At the end of the incubation, 40 μL of a […] solution of resazurin (Sigma, St. Louis, MO) in PBS is added to each well of the plate and plates are incubated for an additional 4 to 5 h at 37° C., 5% CO2, and 95% humidity. Plates are read on a Synergy2 or equivalent reader (Biotek, Winooski, VT) using an excitation of 540 nm and an emission of 600 nm. Data is analyzed using Prism software (Graphpad, San Diego, CA) to calculate IC50 values.

HPAF-II cells = test: HPAF-II cell proliferation assay; assay type: cell-based; settings: Homo sapiens
Method: (§1) HPAF-II cells (catalog #CRL-1997) are obtained from the American Type Culture Collect (ATCC, Manassas, VA). Briefly, cells are grown in Minimum Essential Media supplemented with 10% characterized fetal bovine serum (Invitrogen, Carlsbad, CA) and 1% Penicillin/Streptomycin/L-Glutamine at 37° C., 5% CO2, and 95% humidity. Cells are expanded until reaching 70-95% confluency at which point they are sub-cultured or harvested for assay use. A serial dilution of test compound is dispensed into a 384-well black clear bottom plate in triplicate. 750 cells are added per well in 50 μL complete growth medium in the 384-well plate. Plates are incubated for 115 to 120 h at 37° C., 5% CO2, and 95% humidity. At the end of the incubation, 40 μL of a […] solution of resazurin (Sigma, St. Louis, MO) in PBS is added to each well of the plate and plates are incubated for an additional 18 to 24 h at 37° C., 5% CO2, and 95% humidity. Plates are read on a Synergy2 or equivalent reader (Biotek, Winooski, VT) using an excitation of 540 nm and an emission of 600 nm. Data is analyzed using Prism software (Graphpad, San Diego, CA) to calculate IC50 values.

MiaPaca-2 cells = test: MiaPaca-2 cell proliferation assay; assay type: cell-based; settings: Homo sapiens, MIA PaCa-2
Method: Miapaca-2 cells (catalog #CRL-1420) are obtained from the American Type Culture Collect (ATTC, Manassas, VA). Briefly, cells were grown in DMEM supplemented with 10% characterized fetal bovine serum (Invitrogen, Carlsbad, CA), 2.5% New Zealand sourced horse serum and 1% Penicillin/Streptomycin/L-Glutamine at 37° C., 5% CO2, and 95% humidity. Cells are expanded until reaching 70-95% confluency at which point they are sub-cultured or harvested for assay use. A serial dilution of test compound is dispensed into a 384-well black clear bottom plate in triplicate. Seven hundred fifty cells are added per well in 50 μL complete growth medium in the 384-well plate. Plates are incubated for 67-72 h at 37° C., 5% CO2, and 95% humidity. At the end of the incubation, 10 μL of a 440 μM solution of resazurin (Sigma, St. Louis, MO) in PBS is added to each well of the plate and plates are incubated for an additional 5-6 h at 37° C., 5% CO2, and 95% humidity. Plates are read on a Synergy2 or equivalent reader (Biotek, Winooski VT) using an excitation of 540 nm and an emission of 600 nm. Data is analyzed using Prism software (GraphPad, San Diego, CA) to calculate IC50 values.

Pa16c cells = test: Pa16c cell proliferation assay; assay type: cell-based; settings: 67 to 72 h incubation, resazurin; read-out: Pa16c (inhibition of cell proliferation, IC50)
Method: as §1, with “Pa16c” for “HPAF-II”, “cells” for “cells (catalog #CRL-1997)”, “Dr. Channing Der, University of North Carolina at Chapel Hill.” for “the American Type Culture Collect (ATCC, Manassas, VA).”, “Dulbecco's Modified Eagle Medium” for “Minimum Essential Media”, “67” for “115”, “72” for “120”

[1] = molecular target: T1, C-Raf kinase (SEQ ID NO: 2) (Homo sapiens, UniProt P04049, Y340D/Y341D); test: Biochemical assay for C-Raf (coupled pyruvate kinase/lactate dehydrogenase); settings: 1 mM ATP; read-out: CRAF (inhibition of biochemical activity, IC50)
T1 construct: C-Raf residues 306-end; Y340D, Y341D with N-; GST (N); purchased Sigma

[2] = molecular target: T2, B-Raf kinase (SEQ ID NO: 1) (Homo sapiens, UniProt P15056); test: Biochemical assay for B-Raf (coupled pyruvate kinase/lactate dehydrogenase); settings: 1 mM ATP; read-out: BRAF (inhibition of biochemical activity, IC50)
T2 construct: GST (N); purchased Sigma

[3] = HCT-116, 67 to 72 h incubation, resazurin, read-out: HCT-116 (inhibition of cell proliferation, IC50)
[4] = HPAF-II, 115 to 120 h incubation, resazurin, read-out: HPAF-II (inhibition of cell proliferation, IC50)
[5] = 67-72 h incubation, resazurin, read-out: MiaPaca-2 (inhibition of cell proliferation, IC50)

T2 sequence (P15056 416-766): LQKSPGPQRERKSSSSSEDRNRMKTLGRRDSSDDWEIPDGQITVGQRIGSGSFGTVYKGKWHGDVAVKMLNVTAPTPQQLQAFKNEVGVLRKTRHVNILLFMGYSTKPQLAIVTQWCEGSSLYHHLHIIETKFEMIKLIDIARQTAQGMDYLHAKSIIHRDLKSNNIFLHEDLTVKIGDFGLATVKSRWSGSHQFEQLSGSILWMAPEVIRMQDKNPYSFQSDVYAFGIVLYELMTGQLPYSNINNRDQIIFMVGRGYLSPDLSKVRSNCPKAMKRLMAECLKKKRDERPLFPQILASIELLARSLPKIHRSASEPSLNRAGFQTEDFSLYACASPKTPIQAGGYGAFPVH
T1 sequence (P04049 307-648 Y340D/Y341D): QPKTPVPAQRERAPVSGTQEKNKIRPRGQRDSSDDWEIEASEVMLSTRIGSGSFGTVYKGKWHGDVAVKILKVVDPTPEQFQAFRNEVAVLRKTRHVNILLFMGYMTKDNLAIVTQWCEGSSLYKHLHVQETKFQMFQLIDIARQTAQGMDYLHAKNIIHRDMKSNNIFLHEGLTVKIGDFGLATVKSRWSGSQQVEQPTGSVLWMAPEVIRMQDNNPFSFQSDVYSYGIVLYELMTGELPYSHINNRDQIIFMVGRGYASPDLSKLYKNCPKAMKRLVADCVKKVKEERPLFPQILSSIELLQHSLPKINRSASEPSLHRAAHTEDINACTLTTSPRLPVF

With `CC(C)(C)c1nc(-c2cccc(NS(=O)(=O)c3c(F)cccc3F)c2F)c(-c2ccnc(N)n2)s1` [Dabrafenib, dabrafenib, reference compound] the pIC50 (HCT-116 cells; Table 4, mutant KRAS colorectal cancer cell line, anti-proliferative, read-out: HCT-116) was 5.00 to 6.00, the pIC50 (HPAF-II cells; Table 4, mutant KRAS pancreatic cancer cell line, anti-proliferative, read-out: HPAF-II) was 5.00 to 6.00 and the pIC50 (MiaPaca-2 cells; Table 4, mutant KRAS pancreatic cancer cell line, anti-proliferative, read-out: MiaPaca-2) was 5.00 to 6.00.

`Cc1ccc(NC(=O)c2cc(C(F)(F)F)cnn2)cc1-c1ccnc(N2CCOCC2)c1` [Example 1, N-(4-methyl-3-(2-morpholinopyridin-4-yl)phenyl)-5-(trifluoromethyl)pyridazine-3-carboxamide] gave a pIC50 (Pa16c cells) of 6.30 to 7.00, a pIC50 (HCT-116 cells; [3]) of 6.30 to 7.00 and a pIC50 (HPAF-II cells; [4]) of 6.30 to 7.00. For the same molecule, the pIC50 (MiaPaca-2 cells; [5]) was greater than 7.00, the pIC50 [1] was 6.30 to 7.00 and the pIC50 [2] was 6.30 to 7.00.

In the case of `Cc1ccc(NC(=O)c2cc(C3CC3)cnn2)cc1-c1ccnc(N2CCOCC2)c1` [Example 2, 5-cyclopropyl-N-(4-methyl-3-(2-morpholinopyridin-4-yl)phenyl)pyridazine-3-carboxamide], the pIC50 (Pa16c cells) was 5.00 to 6.00, the pIC50 (HCT-116 cells; [3]) was 6.30 to 7.00 and the pIC50 (HPAF-II cells; [4]) was 6.30 to 7.00. The pIC50 (MiaPaca-2 cells; [5]) was 6.30 to 7.00, the pIC50 [1] was greater than 7.00 and the pIC50 [2] was 6.30 to 7.00.

Molecule `Cc1ccc(NC(=O)c2cc(C(F)(F)F)cnn2)cc1-c1cc(C2CC2)nc(N2CCOCC2)c1` [Example 3] has a pIC50 (Pa16c cells) greater than 7.00, a pIC50 (HCT-116 cells; [3]) of 6.30 to 7.00 and a pIC50 (HPAF-II cells; [4]) of 6.30 to 7.00. For the same molecule, the pIC50 (MiaPaca-2 cells; [5]) was greater than 7.00, the pIC50 [1] was 6.30 to 7.00 and the pIC50 [2] was 6.30 to 7.00.

With `Cc1cc(-c2cc(NC(=O)c3cc(C(F)(F)F)cnn3)ccc2C)cc(N2CCOCC2)n1` [Example 4] the pIC50 (Pa16c cells) was greater than 7.00, the pIC50 (HCT-116 cells; [3]) was 6.30 to 7.00 and the pIC50 (HPAF-II cells; [4]) was greater than 7.00. The pIC50 (MiaPaca-2 cells; [5]) was 6.30 to 7.00, the pIC50 [1] was greater than 7.00 and the pIC50 [2] was greater than 7.00.

Work on `Cc1ccc(NC(=O)c2ccc(C(F)(F)F)nn2)cc1-c1cc(N[C@H](C)CO)nc(N2CCOCC2)c1` [Example 5] yielded a pIC50 (Pa16c cells) of 5.00 to 6.00, a pIC50 (HCT-116 cells; [3]) of 5.00 to 6.00 and a pIC50 (HPAF-II cells; [4]) of 5.00 to 6.00. For the same molecule, the pIC50 (MiaPaca-2 cells; [5]) was 6.30 to 7.00, the pIC50 [1] was 6.00 to 6.30 and the pIC50 [2] was 5.00 to 6.00.

In the case of `Cc1ccc(NC(=O)c2cc(C(F)(F)F)cnn2)cc1-c1cc(N[C@H](C)CO)nc(N2CC3CC(C2)O3)c1` [Example 7], the pIC50 (Pa16c cells) was 6.00 to 6.30, the “HCT-116 (inhibition of cell proliferation, IC50)” value (HCT-116 cells; 67 to 72 h incubation, resazurin) was “++ ++” and the pIC50 (HPAF-II cells; [4]) was greater than 7.00. The pIC50 (MiaPaca-2 cells; [5]) was greater than 7.00, the pIC50 [1] was 6.30 to 7.00 and the pIC50 [2] was 6.30 to 7.00.

In the case of `Cc1ccc(NC(=O)c2cc(C(F)(F)F)cnn2)cc1-c1ccnc(N2CCOC(C(F)(F)F)C2)c1` (stereo not drawn) [Example 8], the pIC50 (Pa16c cells) was 6.00 to 6.30, the pIC50 (HCT-116 cells; [3]) was 6.30 to 7.00 and the pIC50 (HPAF-II cells; [4]) was 6.00 to 6.30. It also gave a pIC50 (MiaPaca-2 cells; [5]) of 6.30 to 7.00, a pIC50 [1] of 5.00 to 6.00 and a pIC50 [2] of 5.00 to 6.00.

`Cc1ccc(NC(=O)c2cncc(Cl)n2)cc1-c1cc(N[C@H](C)CO)nc(N2CCOCC2)c1` [Example 9] was tested, and the pIC50 (Pa16c cells) was 5.00 to 6.00, the pIC50 (HCT-116 cells; [3]) was 5.00 to 6.00 and the pIC50 (HPAF-II cells; [4]) was 6.00 to 6.30. The pIC50 (MiaPaca-2 cells; [5]) was 5.00 to 6.00, the pIC50 [1] was 6.30 to 7.00 and the pIC50 [2] was 6.30 to 7.00.

With `Cc1ccc(NC(=O)c2cc(C(F)(F)F)cnn2)cc1-c1nccc(N2CCOCC2)n1` [Example 10] the pIC50 (Pa16c cells) was 5.00 to 6.00, the pIC50 (HCT-116 cells; [3]) was 5.00 to 6.00 and the pIC50 (HPAF-II cells; [4]) was 5.00 to 6.00. It also gave a pIC50 (MiaPaca-2 cells; [5]) of 5.00 to 6.00, a pIC50 [1] of 5.00 to 6.00 and a pIC50 [2] of 5.00 to 6.00.
